Measurements as given in the supplement of paper PMC8671470.

What was measured:
Details in all cases: 72 h
HL-60 [1] = assay: cell viability (% survival relative to DMSO control); higher = less cytotoxic
In short: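 Four-parameter log-logistic fits in drc and PharmacoGx supplied area under the curve where it is given. Underlying viability came from CellTiter-Glo, normalised to DMSO and proteasome-inhibitor wells, with the proteasome inhibitor at 10 μM. HL-60 cells in RPMI 1640 plus 10% FBS had been rescreened against the full library at five tenfold concentrations of 1–10,000 nM, in duplicate on 384-well plates, with DMSO or 100 nM of one of three metabolic inhibitors, for 72 h at 37 °C, 5% CO2.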

NOMO-1 [2] = assay: cell viability (% survival relative to DMSO control, bortezomib = 0%); higher = less cytotoxic
In short: (§1)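 After 72 h at 37 °C with 5% CO2, cell viability in 384-well plates was measured by CellTiter-Glo luminescence. The plates held compounds pre-printed at 1, 10, 100, 1000 or 10000 nM in duplicate, and cells from 10 AML and 5 CML lines seeded at densities titrated to linear growth. Percent survival is the duplicate mean, normalised to vehicle as 100% and a 10 µM positive control as 0%.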

HEL [3] = assay: as above
In short: as §1

LAMA-84 [4] = assay: as above
In short: as §1

BV-173 [5] = assay: as above
In short: as §1

KU-812 [6] = assay: as above
In short: as §1

K-562 [7] = assay: as above
In short: as §1

ML-2 [8] = assay: as above
In short: as §1

SHI-1 [9] = assay: as above
In short: as §1

THP-1 [10] = assay: as above
In short: as §1

HL-60 [11] = assay: as above
In short: as §1

Mono-Mac-6 [12] = assay: as above
In short: as §1

MV4-11 [13] = assay: as above
In short: as §1

NOMO-1 [14] = tested on: NOMO-1
In short: (§2)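 Each of fifteen myeloid leukaemia cell lines was seeded in RPMI 1640 at a density titrated to its linear growth range. The cells were incubated for 72 h at 37 °C and 5% CO2 with compounds at five tenfold doses from 1 to 10,000 nM, in duplicate. After ATP luminescence was normalised to vehicle and to a positive control at 10 µM, four-parameter log-logistic curves were fitted. These curves gave the IC50.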

HEL [15] = tested on: HEL
In short: as §2

MOLM-13 = tested on: MOLM-13
In short: as §2

LAMA-84 [16] = tested on: LAMA-84
In short: as §2

BV-173 [17] = tested on: BV-173
In short: as §2

KU-812 [18] = tested on: KU-812
In short: as §2

K-562 [19] = tested on: K-562
In short: as §2

ML-2 [20] = tested on: ML-2
In short: as §2

KCL-22 = tested on: KCL-22
In short: as §2

SHI-1 [21] = tested on: SHI-1
In short: as §2

THP-1 [22] = tested on: THP-1
In short: as §2

HL-60 [23] = tested on: HL-60
In short: as §2

KG-1 = tested on: KG-1
In short: as §2

Mono-Mac-6 [24] = tested on: Mono-Mac-6
In short: as §2

MV4-11 [25] = tested on: MV4-11
In short: as §2

COC(=O)[C@]12CCC(C)(C)C[C@H]1[C@H]1C(=O)C=C3[C@@]4(C)C=C(C#N)C(=O)C(C)(C)[C@@H]4CC[C@@]3(C)[C@]1(C)CC2 [Bardoxolone methyl]
cell viability [%], HL-60 [1]
Details	0.001 µM	0.01 µM	0.1 µM	1 µM	10 µM
co-treatment: AZD3965 100 nM	101	98	110	90.8	32.6
co-treatment: DMSO vehicle	102.3	97.6	101	97.8	107
co-treatment: GSK2194069 100 nM	100	92.7	104	88.8	54.3
co-treatment: pictilisib 100 nM	98.9	78.7	73.5	78.4	0.653

cell viability [%]
Details	1 nM	10 nM	100 nM	1000 nM	10000 nM
BV-173 [5]	89.7	102	116	61	5.94
HEL [3]	106	92.6	117	84.7	-0.0991
HL-60 [11]	114	91.8	112	93.6	94.2
K-562 [7]	106	97.5	114	98.8	86.9
KU-812 [6]	84.9	104	113	91.3	59.2
LAMA-84 [4]	98.9	96.1	107	106	86
ML-2 [8]	91.7	103	113	73.1	-0.425
MV4-11 [13]	113	111	112	94.3	96.9
Mono-Mac-6 [12]	82.9	103	123	44.6	13.7
NOMO-1 [2]	99.4	99.3	115	101	80.8
SHI-1 [9]	107	103	118	106	94.3
THP-1 [10]	95.2	104	108	81.6	56.3

Details	IC50 (cell viability) [µM]
BV-173 [17]	1.22
HEL [15]	2.24
HL-60 [23]	> 10
K-562 [19]	> 10
KCL-22	1.14
KG-1	1.09
KU-812 [18]	9.5
LAMA-84 [16]	> 10
ML-2 [20]	1.64
MOLM-13	> 10
MV4-11 [25]	> 10
Mono-Mac-6 [24]	0.79
NOMO-1 [14]	> 10
SHI-1 [21]	> 10
THP-1 [22]	7.05

O=c1oc2c(O)c(O)cc3c(=O)oc4c(O)c(O)cc1c4c23 [Benzoaric Acid]
cell viability [%], HL-60 [1]
Details	0.001 µM	0.01 µM	0.1 µM	1 µM	10 µM
co-treatment: AZD3965 100 nM	98.61	96.4	101	99.21	99.13
co-treatment: DMSO vehicle	102.3	100.2	99.9	102	100
co-treatment: GSK2194069 100 nM	101	97.6	95.1	94.3	100
co-treatment: pictilisib 100 nM	106	104	101.4	99.2	96.3

cell viability [%]
Details	1 nM	10 nM	100 nM	1000 nM	10000 nM
BV-173 [5]	92.9	101	92.8	97.9	99.1
HEL [3]	113	100	107	92.3	114
HL-60 [11]	94.6	106	90.7	92	102
K-562 [7]	111	93.6	94.9	87.7	90.1
KU-812 [6]	98.4	97	95.1	92.4	110
LAMA-84 [4]	101	95.9	98.9	94.6	105
ML-2 [8]	94.7	101	95.9	95.1	108
MV4-11 [13]	107	90.5	98.8	94.2	97.2
Mono-Mac-6 [12]	108	109	103	92.5	118
NOMO-1 [2]	102	104	104	99.9	102
SHI-1 [9]	97.7	106	99.7	94.3	120
THP-1 [10]	102	97.3	94.3	99.4	100

Details	IC50 (cell viability) [µM]
BV-173 [17]	> 10
HEL [15]	> 10
HL-60 [23]	> 10
K-562 [19]	> 10
KCL-22	> 10
KG-1	> 10
KU-812 [18]	> 10
LAMA-84 [16]	> 10
ML-2 [20]	> 10
MOLM-13	> 10
MV4-11 [25]	> 10
Mono-Mac-6 [24]	> 10
NOMO-1 [14]	> 10
SHI-1 [21]	> 10
THP-1 [22]	> 10

Cc1c(-c2ccc(-c3ccccc3F)cc2)nc2ccc(F)cc2c1C(=O)O [Brequinar]
cell viability [%], HL-60 [1]
Details	0.001 µM	0.01 µM	0.1 µM	1 µM	10 µM
co-treatment: AZD3965 100 nM	98.8	99.3	78.9	84.4	68.2
co-treatment: DMSO vehicle	99.9	98.8	81.4	87.8	81.3
co-treatment: GSK2194069 100 nM	96.8	103	84.9	86.9	76.8
co-treatment: pictilisib 100 nM	91.4	101	86.8	87.3	93

cell viability [%]
Details	1 nM	10 nM	100 nM	1000 nM	10000 nM
BV-173 [5]	94.7	90.3	93.3	118	32.2
HEL [3]	101	99.2	102	69	27.8
HL-60 [11]	98.5	95.8	93.2	82.7	50
K-562 [7]	98.1	89.2	92.9	103	40.4
KU-812 [6]	87.2	95.4	93.1	100	80.8
LAMA-84 [4]	97.3	98.2	94.2	102	47.4
ML-2 [8]	97.2	98.2	88.9	107	40.3
MV4-11 [13]	106	100	94.3	110	36.8
Mono-Mac-6 [12]	103	95.9	97.9	91.9	50.2
NOMO-1 [2]	97.3	95.3	104	104	89.5
SHI-1 [9]	85.3	99	103	111	63.9
THP-1 [10]	99.9	98.5	99	102	83.3

Details	IC50 (cell viability) [µM]
BV-173 [17]	7.19
HEL [15]	1.48
HL-60 [23]	6.09
K-562 [19]	8.59
KCL-22	0.94
KG-1	> 10
KU-812 [18]	> 10
LAMA-84 [16]	9.69
ML-2 [20]	8.46
MOLM-13	4.34
MV4-11 [25]	7.76
Mono-Mac-6 [24]	> 10
NOMO-1 [14]	> 10
SHI-1 [21]	> 10
THP-1 [22]	> 10
